Laboratory results reported in patent publication US20250250265A1, “BENZOTHIAZOLE-PHENYLSULFONYL-PIPERIDINE ANALOGS AS ACTIVATORS OF NACYLPHOSPHATIDYLETHANOLAMINE HYDROLYZING PHOSPHOLIPASE D” (priority 2022, published 2025).
Values joined by “and” are separate entries in the source; they are usually repeats but may differ in a detail not shown here. Identical values can stand only once. “Also recorded” adds a separate entry of the source.

Key:
[1] = molecular target: T1, recombinant mouse NAPE-PLD (Mus musculus, UniProt Q8BH82); assay: In vitro competition assay (LEI-401, VU233, VU534) on recombinant mouse Nape-pld; type: biochemical
T1 construct: hexahistidine (His6) (C); made in house; host or cells: E. coli
T1 sequence (Q8BH82 1-396): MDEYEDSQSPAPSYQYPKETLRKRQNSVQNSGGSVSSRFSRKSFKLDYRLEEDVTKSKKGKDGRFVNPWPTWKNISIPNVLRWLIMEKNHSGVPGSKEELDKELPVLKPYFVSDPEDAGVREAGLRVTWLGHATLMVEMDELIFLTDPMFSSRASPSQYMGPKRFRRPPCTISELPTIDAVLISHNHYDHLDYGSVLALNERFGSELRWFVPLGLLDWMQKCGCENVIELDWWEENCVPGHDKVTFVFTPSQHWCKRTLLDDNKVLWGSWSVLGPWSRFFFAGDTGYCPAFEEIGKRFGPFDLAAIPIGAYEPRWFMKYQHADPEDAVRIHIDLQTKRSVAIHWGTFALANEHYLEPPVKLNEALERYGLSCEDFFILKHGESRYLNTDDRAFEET
Protocol: A similar in vitro fluorescence Nape-pld activity assay was used for LEI-401 and VU233 competition assays except that this assay was performed using black-walled clear-bottom 96-well plates with 3.5 μM PED-A1 and no N-palmitoyl-dioleoyl-PE used as substrate and read in a BioTek Synergy H1 plate reader with the slope of the fluorescence signal from 0-4 min (linear phase) used as the assay readout. LEI-401, VU233, and VU534 were incubated for 1 h prior to addition of PED-A1. The Michaelis-Menten study used this same assay except with graded concentration of flame-NAPE.

[2] = molecular target: T2, NAPE-PLD activity of HepG2 cells (Homo sapiens, UniProt Q6IQ20); assay: Cell-based NAPE-PLD activity in HepG2 cells (flame-NAPE); conditions: 10 μM
T2 construct: endogenous in cells; host or cells: HepG2
T2 sequence (Q6IQ20 whole entry): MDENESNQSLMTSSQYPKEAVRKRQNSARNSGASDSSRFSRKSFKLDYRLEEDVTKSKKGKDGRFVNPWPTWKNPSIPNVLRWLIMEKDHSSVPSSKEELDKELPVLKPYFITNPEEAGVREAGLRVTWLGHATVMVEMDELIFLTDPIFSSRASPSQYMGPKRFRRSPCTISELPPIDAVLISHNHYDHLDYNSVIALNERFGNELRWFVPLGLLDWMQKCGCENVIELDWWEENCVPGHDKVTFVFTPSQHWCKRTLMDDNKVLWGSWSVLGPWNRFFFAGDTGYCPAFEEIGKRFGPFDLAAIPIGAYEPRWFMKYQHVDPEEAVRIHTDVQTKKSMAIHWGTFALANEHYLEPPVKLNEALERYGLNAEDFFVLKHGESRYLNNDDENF
Protocol: In vitro models of the hepatic steatosis of non-alcoholic fatty liver disease (NAFLD) are well-established, with the primary method being incubation of primary human hepatocytes or hepatocyte cell lines such as HepG2, HuH7, HepaRG, with oleic acid and palmitic acid for 24 to 48 h, then measuring the resulting steatosis, lipid peroxidation, apoptosis, and inflammatory gene expression. Using flame-NAPE to measure NAPE-PLD activity in the human hepatoma HepG2 cell line, the experimental data confirmed that VU534 activated NAPE-PLD in human cells (AC50 940 nM; max % bA 155%). Bithionol (10 μM) reduced HepG2 flame-NAPE hydrolysis by >67%.
(§1) NAPE-PLD activity was measured in cells as previously described, except that FluoroBrite DMEM (Gibco A1896701) was used as media. See Zarrow et al., J. Lipid Res. 63(1): 100156 (2022). For RAW264.7 assays, PED-A1 (3.6 μM final) was used as the substrate with 10 μM orlistat added to inhibit PLA1 activity, while for HepG2 cells, flame-NAPE was used (with no orlistat added).

[3] = test system: bone marrow-derived macrophages (BMDM); assay: Efferocytosis assay with bone marrow-derived macrophages and apoptotic Jurkat cells; type: cell-based, mouse; conditions: 10 μM, 6 h before assay
Protocol: Male C57BL6/j wild-type or Napepld^−/− mice were euthanized with isoflurane and hind legs were removed. Marrow was flushed from femurs and tibias using DMEM containing 4.5 g/L glucose and a 26-gauge needle. Cell suspensions were passed over a 40-μm filter, centrifuged at 500×g, and resuspended in 50 ml of DMEM containing 4.5 g/L glucose, 20% L-cell conditioned media, 10% heat-inactivated FBS, and 1% penicillin/streptomycin. 10 ml of cell suspension was plated into each of five 100-mm dishes and incubated for four days at 37° C. and 5% CO2. On day four, non-adherent cells and debris were aspirated from the plates and replaced with fresh media. After 7 days of differentiation, cells were harvested for use in experiments.
Assays were performed according to previously described protocols. See e.g., Doran et al. J. Clin. Invest. 127(11): 4075-4089 (2017); Proto et al., Immunity 49(4): 666-677 (2018). Bone marrow-derived macrophages were seeded at 0.25×10^6 cells/well in a non-tissue culture-treated 24-well plate and allowed to adhere overnight. Macrophages were treated with various compounds at a final concentration of 10 μM or DMSO as a vehicle for 6 hours prior to each experiment. Jurkat cells were exposed to UV light (254 nm) for 5 minutes to induce apoptosis and then incubated in a 37° C. incubator with 5% CO2 for 2 hours. Surveillance staining of these cells routinely yielded approximately 80-90% apoptosis (Annexin V+) using this method. Apoptotic Jurkat cells were labeled with either CellVue Claret (Millipore Sigma) or Cell Trace Violet (Invitrogen) per the manufacturer's instructions. After staining, cells were resuspended in macrophage medium at a density of […] and 500 μL of this suspension was added to the drug-containing media on the macrophages to achieve a cell ratio of 3:1 Jurkats: macrophages. After incubating for 45 minutes at 37° C. and 5% CO2, the medium was aspirated, and the macrophages were gently washed twice with PBS to remove unbound apoptotic cells. Macrophages were then removed from the plate using Cell Stripper (Sigma), washed, resuspended in staining buffer consisting of 2% FBS in PBS with 2 mM EDTA, and blocked with anti-mouse CD16/32 antibodies for 15 minutes on ice. After blocking, cells were pelleted and resuspended with F4/80. Cells were incubated for 45 minutes on ice in the dark, then washed and resuspended in staining buffer for analysis. Cells were analyzed using an Attune NxT cytometer (Thermo Fisher) and data were analyzed using FlowJo software to quantify the proportion of F4/80^+ macrophages that co-stained for apoptotic cells (% efferocytosis).

[4] = molecular target: T3, NAPE-PLD activity in primary BMDMϕ (Mus musculus, UniProt Q8BH82); assay: NAPE-PLD activity in primary bone marrow derived macrophages; type: cell-based; conditions: VU534 at 10 μM (FIG. 5)
T3 construct: endogenous in cells; host or cells: primary bone-marrow-derived macrophages (C57BL6/j mice)
T3 sequence (Q8BH82 1-396): T1 sequence (Q8BH82 1-396)

[5] = molecular target: T4, NAPE-PLD activity of RAW264.7 macrophages (Mus musculus, UniProt Q8BH82); assay: Cell-based NAPE-PLD activity in RAW264.7 macrophages (PED-A1 with orlistat); conditions: with 20 μM VU534 (FIG. 17C)
T4 construct: endogenous in cells; host or cells: RAW264.7
T4 sequence (Q8BH82 1-396): T1 sequence (Q8BH82 1-396)
Protocol: as §1

[6] = molecular target: T5, Fatty Acid Amide Hydrolase (FAAH) (Homo sapiens, UniProt O00519); assay: FAAH activity assay (Cayman Chemicals); type: biochemical; conditions: Table 3; 33 μM
T5 construct: purchased Cayman Chemicals
T5 sequence (O00519 1-579): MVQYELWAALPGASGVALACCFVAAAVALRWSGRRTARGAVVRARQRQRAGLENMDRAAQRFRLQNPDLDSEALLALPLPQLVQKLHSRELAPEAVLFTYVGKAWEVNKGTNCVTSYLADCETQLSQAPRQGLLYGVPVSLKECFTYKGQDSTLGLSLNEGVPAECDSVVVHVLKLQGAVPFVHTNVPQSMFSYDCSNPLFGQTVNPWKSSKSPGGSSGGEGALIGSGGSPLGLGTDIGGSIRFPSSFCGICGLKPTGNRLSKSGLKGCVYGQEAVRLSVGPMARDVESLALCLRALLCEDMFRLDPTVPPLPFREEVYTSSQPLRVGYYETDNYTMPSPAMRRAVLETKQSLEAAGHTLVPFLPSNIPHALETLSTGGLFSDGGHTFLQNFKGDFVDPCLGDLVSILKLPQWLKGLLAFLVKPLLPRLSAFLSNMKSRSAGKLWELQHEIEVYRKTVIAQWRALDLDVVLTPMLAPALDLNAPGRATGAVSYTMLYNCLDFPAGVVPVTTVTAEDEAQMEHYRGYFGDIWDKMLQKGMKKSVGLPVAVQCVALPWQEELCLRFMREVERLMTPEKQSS
Protocol: Concentration response curves were plotted for VU534 for the enzymes fatty acid amide hydrolase (FAAH) and soluble epoxide hydrolase (sEH).
The fluorescence interference assay was performed using the same method as the HTS assay, but with BODIPY-FL C5 (Thermo Fisher Scientific) used in place of PED-A1. sEH and FAAH activity assays were performed according to the manufacturer's specifications (Cayman Chemicals).

[7] = test system: RAW264.7 mouse macrophages; assay: Cytotoxicity (MTT) in RAW264.7 macrophages; type: cell-based; conditions: Table 3; 33 μM
Protocol: (§2) Cytotoxicity was measured using MTT as previously described except that the studies used 96-well plates with 100 μL of 0.3 mg/mL MTT solution was added after 24 h of treatment and then replaced after 3 h with 0.1 M HCl in isopropanol. See Aggarwal et al., J. Biol. Chem. 295(21): 7289-7300 (2020). Viability was expressed as percent absorbance at 560 nm relative to vehicle controls.

[8] = molecular target: T1, recombinant mouse NAPE-PLD; assay: In vitro fluorescence NAPE-PLD activity assay (HTS/CRC) with recombinant mouse NAPE-PLD and PED-A1; type: biochemical
Protocol: Using the fluorogenic NAPE substrate, PED-A1, and recombinant mouse NAPE-PLD (rNAPE-PLD), an in vitro high-throughput (HTS) assay was conducted to screen ˜40,000 compounds for their ability to modulate NAPE-PLD activity. The HTS assay enabled the detection of both NAPE-PLD activators and inhibitors. […] Initial structure-activity response studies with the top hits identified benzothiazole phenylsulfonyl-piperidine carboxamide analogs (BT-PSP analogs) as lead compounds for NAPE-PLD activators (Table 1). The lead BT-PSP analog identified, VU534, induces 50% of its activation effect on NAPE-PLD at 270 nM (AC50 270 nM), and induces a maximal effect of 195% of basal NAPE-PLD activity (Table 1).
In vitro fluorescence NAPE-PLD activity assays using recombinant NAPE-PLD and either PED-A1 or flame-NAPE as fluorogenic substrate were performed as previously described except with small modifications as noted below. See Aggarwal et al., J. Biol. Chem. 295(21): 7289-7300 (2020); Zarrow et al., J. Lipid Res. 63(1): 100156 (2022).
For the HTS assays, test compounds were incubated with recombinant enzyme for 1 h prior to adding PED-A1 (final 0.4 μM) mixed with N-palmitoyl-dioleoyl-PE (final 3.6 μM) to adjust for the high sensitivity of the Panoptic instrument (WaveFront Biosciences). Assays used black-wall, clear-bottom, non-sterile, and non-treated 384-well plates (Greiner Bio-One 781906). The assay was read in kinetic fluorescence mode on the Panoptic instrument for 4 min and the slope of the signal from 30-100 s was used for analysis. A total of 39,328 compounds from the Vanderbilt Discovery Collection were tested, each at 10 μM. The tested compounds were chosen to represent a structurally diverse selection from the full library. Each 384-well plate included 320 test compound wells and 64 control wells. Unlike previous pilot screening assays, bithionol (10 μM final) was used in place of lithocholic acid (100 μM final) as the inhibitor control. Before performing high-throughput screening, a checkerboard assay was performed to validate the assay parameters. This yielded a Z′ score of 0.676. Z′ scores were also calculated for each plate during screening, and plates with scores <0.5 were re-run. The average Z′ across all screening plates was 0.52, and the total hit rate was 3.6%. B-scores were calculated from the initial slopes across each plate using WaveGuide software (WaveFront Biosiences). Modulator hits were defined as compounds with absolute B-scores of 3 or higher. The number of compounds in various B-score ranges were as follows: […], 12 compounds; −10 to −5, 221 compounds; −5 to −3, 770 compounds; −3 to 3, 37924 compounds; 3 to 4, 314 compounds; 4 to 6, 70 compounds; 6 to 10, 15 compounds. Activator hits with B-scores of >3 were selected for the replication assay and a selection of analogs of the activators.
Concentration response curve (CRC) experiments used the same assay conditions as the HTS assay, except that graded concentrations of each test compound were used, with total amount of vehicle (DMSO) kept constant. CRC experiments with purified recombinant mouse NAPE-PLD were performed on two separate days, with values from each day normalized to vehicle only controls on same plate, and then all normalized values from both days averaged together. CRC experiments with human NAPE-PLD represent value from only a single day, due to limited amounts of this recombinant enzyme.

[9] = test system: HepG2 human hepatocytoma cells; assay: Cytotoxicity (MTT) in HepG2 cells; type: cell-based; conditions: Table 3; 33 μM
Protocol: as §2

SMILES: O=C(NCC1CC1)c1cc(N2CC[C@H](O)C2)nc(N2CCC[C@@H](c3ccccc3)C2)n1 [LEI-401, reference compound]
- inhibition of mouse NAPE-PLD activity at 100 μM ([1]; 100 μM): nearly complete inhibition
- inhibition of mouse NAPE-PLD activity ([1]; graded concentrations (FIG. 19C)): inhibited mouse NAPE-PLD activity in a concentration-dependent manner

SMILES: Oc1c(Cl)cc(Cl)cc1Sc1cc(Cl)cc(Cl)c1O [bithionol, reference compound]
- reduction of HepG2 flame-NAPE hydrolysis [2]: > 67%
- effect on efferocytosis by wild-type BMDM [3]: markedly reduced efferocytosis
- effect on efferocytosis by wild-type BMDM ([3]; listed as Bith): reduced efferocytosis
- effect on NAPE-PLD activity in primary BMDM [4]: inhibits NAPE-PLD activity
- effect on increase in RAW264.7 NAPE-PLD activity induced by 20 μM VU534 [5]: blocked in a concentration-dependent manner; also recorded: blocks increased Nape-pld activity

SMILES: CCC(=O)N1CCC(NC(=O)Nc2ccc(OC(F)(F)F)cc2)CC1 [TPPU, N-[1-(1-Oxopropyl)-4-piperidinyl]-N′-[4-(trifluoromethoxy)phenyl]urea, reference compound]
- effect on efferocytosis by wild-type BMDM [3]: Neither AUDA nor TPPU significantly enhanced efferocytosis

SMILES: Cc1cc(F)ccc1S(=O)(=O)N1CCC(C(=O)Nc2nc3c(C)cccc3s2)CC1 [VU212]
- Remaining FAAH Activity (33 μM) [6]: 61% and 79%
- % viability RAW 264.7 (33 μM) [7]: 32% and 56%
- In-cell NAPE-PLD activity in HepG2 (10 μM) with PED-A1 or flame-NAPE as substrate ([2]; Table 3): 197% and 268%
- EC50 ([8]; Table 3, read-out: In vitro EC50): ~2.9 µM
- Emax ([8]; Table 3, read-out: In vitro Emax (100% activity is baseline activity of vehicle only)): ~151%
- Emax (95% Cl) ([8]; Table 4, maximal efficacy as fold increase in NAPE-PLD activity versus vehicle only): 1.6 (1.5-1.6) fold
- % HepG2 viability (33 μM) [9]: 66% and 69%

SMILES: O=C(O)CCCCCCCCCCCNC(=O)NC12CC3CC(CC(C3)C1)C2 [AUDA, 12-[[(tricyclo[3.3.1.13,7]dec-1-ylamino)carbonyl]amino]-dodecanoic acid, reference compound]
- effect on efferocytosis by wild-type BMDM [3]: Neither AUDA nor TPPU significantly enhanced efferocytosis
